{"source": "BigSolDB 2.1", "data": [{"smiles": "CCc1cc(C(N)=S)ccn1", "values": [{"measurement": "solubility (mole fraction)", "setting": "in 2-ethoxyethanol, 278.15 K", "result": 0.0252}, {"measurement": "solubility (mole fraction)", "setting": "in 2-ethoxyethanol, 283.15 K", "result": 0.0261}, {"measurement": "solubility (mole fraction)", "setting": "in 2-ethoxyethanol, 288.15 K", "result": 0.0289}, {"measurement": "solubility (mole fraction)", "setting": "in 2-ethoxyethanol, 293.15 K", "result": 0.0336}, {"measurement": "solubility (mole fraction)", "setting": "in 2-ethoxyethanol, 298.15 K", "result": 0.0383}, {"measurement": "solubility (mole fraction)", "setting": "in 2-ethoxyethanol, 303.15 K", "result": 0.0449}, {"measurement": "solubility (mole fraction)", "setting": "in 2-ethoxyethanol, 308.15 K", "result": 0.0516}, {"measurement": "solubility (mole fraction)", "setting": "in 2-ethoxyethanol, 313.15 K", "result": 0.0596}, {"measurement": "solubility (mole fraction)", "setting": "in 2-ethoxyethanol, 318.15 K", "result": 0.0677}, {"measurement": "solubility (mole fraction)", "setting": "in 2-ethoxyethanol, 323.15 K", "result": 0.0751}, {"measurement": "solubility (mole fraction)", "setting": "in 2-methoxyethanol, 278.15 K", "result": 0.0343}, {"measurement": "solubility (mole fraction)", "setting": "in 2-methoxyethanol, 283.15 K", "result": 0.0387}, {"measurement": "solubility (mole fraction)", "setting": "in 2-methoxyethanol, 288.15 K", "result": 0.0441}, {"measurement": "solubility (mole fraction)", "setting": "in 2-methoxyethanol, 293.15 K", "result": 0.0494}, {"measurement": "solubility (mole fraction)", "setting": "in 2-methoxyethanol, 298.15 K", "result": 0.055}, {"measurement": "solubility (mole fraction)", "setting": "in 2-methoxyethanol, 303.15 K", "result": 0.0617}, {"measurement": "solubility (mole fraction)", "setting": "in 2-methoxyethanol, 308.15 K", "result": 0.0676}, {"measurement": "solubility (mole fraction)", "setting": "in 2-methoxyethanol, 313.15 K", "result": 0.075}, {"measurement": "solubility (mole fraction)", "setting": "in 2-methoxyethanol, 318.15 K", "result": 0.0848}, {"measurement": "solubility (mole fraction)", "setting": "in 2-methoxyethanol, 323.15 K", "result": 0.094}, {"measurement": "solubility (mole fraction)", "setting": "in DMAc, 278.15 K", "result": 0.169}, {"measurement": "solubility (mole fraction)", "setting": "in DMAc, 283.15 K", "result": 0.173}, {"measurement": "solubility (mole fraction)", "setting": "in DMAc, 288.15 K", "result": 0.179}, {"measurement": "solubility (mole fraction)", "setting": "in DMAc, 293.15 K", "result": 0.189}, {"measurement": "solubility (mole fraction)", "setting": "in DMAc, 298.15 K", "result": 0.199}, {"measurement": "solubility (mole fraction)", "setting": "in DMAc, 303.15 K", "result": 0.209}, {"measurement": "solubility (mole fraction)", "setting": "in DMAc, 308.15 K", "result": 0.221}, {"measurement": "solubility (mole fraction)", "setting": "in DMAc, 313.15 K", "result": 0.233}, {"measurement": "solubility (mole fraction)", "setting": "in DMAc, 318.15 K", "result": 0.245}, {"measurement": "solubility (mole fraction)", "setting": "in DMAc, 323.15 K", "result": 0.257}, {"measurement": "solubility (mole fraction)", "setting": "in DMF, 278.15 K", "result": 0.104}, {"measurement": "solubility (mole fraction)", "setting": "in DMF, 283.15 K", "result": 0.112}, {"measurement": "solubility (mole fraction)", "setting": "in DMF, 288.15 K", "result": 0.123}, {"measurement": "solubility (mole fraction)", "setting": "in DMF, 293.15 K", "result": 0.135}, {"measurement": "solubility (mole fraction)", "setting": "in DMF, 298.15 K", "result": 0.148}, {"measurement": "solubility (mole fraction)", "setting": "in DMF, 303.15 K", "result": 0.157}, {"measurement": "solubility (mole fraction)", "setting": "in DMF, 308.15 K", "result": 0.167}, {"measurement": "solubility (mole fraction)", "setting": "in DMF, 313.15 K", "result": 0.185}, {"measurement": "solubility (mole fraction)", "setting": "in DMF, 318.15 K", "result": 0.199}, {"measurement": "solubility (mole fraction)", "setting": "in DMF, 323.15 K", "result": 0.219}, {"measurement": "solubility (mole fraction)", "setting": "in DMSO, 293.15 K", "result": 0.187}, {"measurement": "solubility (mole fraction)", "setting": "in DMSO, 298.15 K", "result": 0.205}, {"measurement": "solubility (mole fraction)", "setting": "in DMSO, 303.15 K", "result": 0.216}, {"measurement": "solubility (mole fraction)", "setting": "in DMSO, 308.15 K", "result": 0.228}, {"measurement": "solubility (mole fraction)", "setting": "in DMSO, 313.15 K", "result": 0.243}, {"measurement": "solubility (mole fraction)", "setting": "in DMSO, 318.15 K", "result": 0.259}, {"measurement": "solubility (mole fraction)", "setting": "in DMSO, 323.15 K", "result": 0.271}, {"measurement": "solubility (mole fraction)", "setting": "in NMP, 278.15 K", "result": 0.182}, {"measurement": "solubility (mole fraction)", "setting": "in NMP, 283.15 K", "result": 0.191}, {"measurement": "solubility (mole fraction)", "setting": "in NMP, 288.15 K", "result": 0.199}, {"measurement": "solubility (mole fraction)", "setting": "in NMP, 293.15 K", "result": 0.212}, {"measurement": "solubility (mole fraction)", "setting": "in NMP, 298.15 K", "result": 0.22}, {"measurement": "solubility (mole fraction)", "setting": "in NMP, 303.15 K", "result": 0.23}, {"measurement": "solubility (mole fraction)", "setting": "in NMP, 308.15 K", "result": 0.242}, {"measurement": "solubility (mole fraction)", "setting": "in NMP, 313.15 K", "result": 0.253}, {"measurement": "solubility (mole fraction)", "setting": "in NMP, 318.15 K", "result": 0.265}, {"measurement": "solubility (mole fraction)", "setting": "in NMP, 323.15 K", "result": 0.277}, {"measurement": "solubility (mole fraction)", "setting": "in acetone, 278.15 K", "result": 0.00589}]}]}
